Test results published in US9856216B2, “Compounds as TNIK, IKKε and TBK1 inhibitors and pharmaceutical composition comprising same” (GREEN CROSS CORPORATION, priority 2015, dated 2018).

How the values were obtained:
TBK1 = molecular target: T1, TBK1 (Homo sapiens, UniProt Q9UHD2); assay: ADP-Glo Kinase Assay, inhibition activity on TBK1; type: biochemical
T1 construct: purchased Promega V3991
T1 sequence (Q9UHD2 1-729): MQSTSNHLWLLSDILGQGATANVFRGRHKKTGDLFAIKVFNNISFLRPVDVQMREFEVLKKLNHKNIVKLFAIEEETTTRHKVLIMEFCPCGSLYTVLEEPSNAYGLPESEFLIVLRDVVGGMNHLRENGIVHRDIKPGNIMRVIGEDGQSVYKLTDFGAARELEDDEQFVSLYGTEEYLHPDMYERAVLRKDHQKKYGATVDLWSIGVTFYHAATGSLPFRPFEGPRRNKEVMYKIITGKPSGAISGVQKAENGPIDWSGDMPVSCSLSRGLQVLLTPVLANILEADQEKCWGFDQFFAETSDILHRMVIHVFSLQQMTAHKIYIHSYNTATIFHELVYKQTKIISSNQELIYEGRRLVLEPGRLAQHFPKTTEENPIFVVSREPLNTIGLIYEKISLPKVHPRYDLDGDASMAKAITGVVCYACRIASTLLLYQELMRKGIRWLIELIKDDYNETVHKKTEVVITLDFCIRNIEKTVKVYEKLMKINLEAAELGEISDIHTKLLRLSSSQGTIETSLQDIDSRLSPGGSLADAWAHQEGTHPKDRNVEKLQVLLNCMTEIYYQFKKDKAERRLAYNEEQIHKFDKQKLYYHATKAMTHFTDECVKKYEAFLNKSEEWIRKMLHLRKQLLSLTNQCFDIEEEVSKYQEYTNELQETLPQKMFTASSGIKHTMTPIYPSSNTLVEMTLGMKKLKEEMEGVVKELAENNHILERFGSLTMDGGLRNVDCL
Method: (§1) The inhibition activities on TNIK, IKKε and TBK1 were measured by a luminometer, TNIK/IKKε/TBK1 Kinase Enzyme System (Promega, Ca# V4158; Invitrogen, PR8031B, Promega, Ca# V3991) and ADP-Glo Kinase Assay using ADP-Glo™ Kinase Analysis Kit (Promega, Ca# V9101) and a kinase reaction buffer [40 mM Tris(pH 7.5), 20 mM MgCl2, 0.1 mg/mL BSA] in accordance with the manufacturer's protocol.

IKKε = molecular target: T2, IKKε (Homo sapiens, UniProt Q14164); assay: ADP-Glo Kinase Assay, inhibition activity on IKKε; type: biochemical
T2 construct: purchased Invitrogen PR8031B
T2 sequence (Q14164 1-716): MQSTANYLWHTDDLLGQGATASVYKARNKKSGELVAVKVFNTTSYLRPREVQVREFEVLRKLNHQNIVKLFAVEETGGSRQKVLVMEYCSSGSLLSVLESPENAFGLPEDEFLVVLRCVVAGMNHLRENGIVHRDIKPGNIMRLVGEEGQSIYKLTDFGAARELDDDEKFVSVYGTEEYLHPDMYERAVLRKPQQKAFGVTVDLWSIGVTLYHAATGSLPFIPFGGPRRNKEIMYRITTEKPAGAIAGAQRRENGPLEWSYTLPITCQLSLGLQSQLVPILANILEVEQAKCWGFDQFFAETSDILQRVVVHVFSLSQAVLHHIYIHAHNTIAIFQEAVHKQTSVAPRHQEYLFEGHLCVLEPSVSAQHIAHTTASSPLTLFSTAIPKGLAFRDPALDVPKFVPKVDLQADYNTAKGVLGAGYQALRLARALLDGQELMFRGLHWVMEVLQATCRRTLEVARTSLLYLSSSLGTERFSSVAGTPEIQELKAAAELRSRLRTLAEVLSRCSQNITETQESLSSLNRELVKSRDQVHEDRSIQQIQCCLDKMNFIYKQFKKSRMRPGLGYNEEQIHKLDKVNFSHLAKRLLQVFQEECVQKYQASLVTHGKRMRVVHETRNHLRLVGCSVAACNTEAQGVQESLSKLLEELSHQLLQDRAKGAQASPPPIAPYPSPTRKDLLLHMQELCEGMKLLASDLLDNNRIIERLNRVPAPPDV
Method: as §1

Row | IC50 (TBK1) [nM] | IC50 (IKKε) [nM] | SMILES
1 | 100 | 350 | CC(=O)Nc1ccc(Nc2nccc(-c3ccc(N)c4c3CNC4=O)n2)cc1 [Example 76, N-(4-((4-(7-amino-1-oxoisoindolin-4-yl)pyrimidin-2-yl)amino)phenyl)acetamide]
2 | 27 | 200 | CC(=O)Nc1cccc(Nc2nccc(-c3ccc(N)c4c3CNC4=O)n2)c1 [Example 77, N-(3-((4-(7-amino-1-oxoisoindolin-4-yl)pyrimidin-2-yl)amino)phenyl)acetamide]
3 | 190 | 1390 | COc1cccc(Nc2cc(-c3ccc(N)c4c3CNC4=O)ncn2)c1 [Example 78, 7-Amino-4-(6-((3-methoxyphenyl)amino)pyrimidin-4-yl) isoindolin-1-one]
4 | 9230 | > 10000 | Nc1ccc(-c2ccnc3[nH]ccc23)c2c1C(=O)NC2 [Example 80, 7-Amino-4-(1H-pyrrolo[2,3-b]pyridin-4-yl)isoindolin-1-one]
5 | > 10000 | > 10000 | CN1CCN(c2nccc(-c3ccc(N)c4c3CNC4=O)n2)CC1 [Example 81, 7-Amino-4-(2-(4-methylpiperazin-1-yl)pyrimidin-4-yl) isoindolin-1-one]
6 | > 10000 | > 10000 | Nc1ccc(-c2ccnc(N3CCOCC3)n2)c2c1C(=O)NC2 [Example 82, 7-Amino-4-(2-morpholinopyrimidin-4-yl)isoindolin-1-one]
7 | 380 | 870 | Cc1ccc(Nc2nccc(-c3ccc(N)c4c3CNC4=O)n2)cc1 [Example 83, 7-Amino-4-(2-(p-tolylamino)pyrimidin-4-yl)isoindolin-1-one]
8 | 200 | 440 | Cc1cccc(Nc2nccc(-c3ccc(N)c4c3CNC4=O)n2)c1 [Example 84, 7-Amino-4-(2-(m-tolylamino)pyrimidin-4-yl)isoindolin-1-one]
9 | 72 | 160 | CC(=O)Nc1ccc(-c2cnc3[nH]cc(-c4ccc(N)c5c4CNC5=O)c3c2)cc1 [Example 85, N-(4-(3-(7-amino-1-oxoisoindolin-4-yl)-1H-pyrrolo[2,3-b]pyridine-5-yl)phenyl)acetamide]
10 | 32 | 56 | Nc1ccc(-c2c[nH]c3ncc(-c4ccc(CN5CCOCC5)s4)cc23)c2c1C(=O)NC2 [Example 86, 7-Amino-4-(5-(5-(morpholinomethyl)thiophen-2-yl)-1H-pyrrolo[2,3-b]pyridin-3-yl)isoindolin-1-one]
11 | 100 | 630 | COc1cccc(Nc2nccc(-c3ccc(NC(C)=O)c4c3CNC4=O)n2)c1 [Example 162, N-(7-(2-((3-methoxyphenyl)amino)pyrimidin-4-yl)-3-oxoisoindolin-4-yl)acetamide]
12 | 4000 | > 10000 | CC(=O)Nc1ccc(-c2ccnc(Nc3cccc(F)c3)n2)c2c1C(=O)NC2 [Example 163, N-(7-(2-((3-fluorophenyl)amino)pyrimidin-4-yl)-3-oxoisoindolin-4-yl) acetamide]
13 | 350 | 830 | CC(=O)Nc1ccc(-c2ccnc(Nc3cccc(C)c3)n2)c2c1C(=O)NC2 [Example 164, N-(3-oxo-7-(2-(m-tolylamino)pyrimidin-4-yl)isoindolin-4-yl) acetamide]
14 | > 10000 | > 10000 | CC(=O)Nc1ccc(-c2ccnc(Nc3ccc(C)cc3)n2)c2c1C(=O)NC2 [Example 165, N-(3-oxo-7-(2-(p-tolylamino)pyrimidin-4-yl)isoindolin-4-yl) acetamide]
15 | 94 | > 10000 | CCC(=O)Nc1ccc(-c2ccnc(Nc3cccc(OC)c3)n2)c2c1C(=O)NC2 [Example 166, N-(7-(2-((3-methoxyphenyl)amino)pyrimidin-4-yl)-3-oxoisoindolin-4-yl)propionamide]
16 | 750 | 1960 | COc1cccc(Nc2nccc(-c3ccc(N(C)C)c4c3CNC4=O)n2)c1 [Example 266, 7-(Dimethylamino)-4-(2-((3-methoxyphenyl)amino)pyrimidin-4-yl)isoindolin-1-one]
17 | 3980 | 5510 | CN(C)c1ccc(-c2ccnc(Nc3cccc(F)c3)n2)c2c1C(=O)NC2 [Example 267, 7-(Dimethylamino)-4-(2-((3-fluorophenyl)amino)pyrimidin-4-yl)isoindolin-1-one]
18 | 320 | 880 | CCCCNc1ccc(-c2ccnc(Nc3cccc(OC)c3)n2)c2c1C(=O)NC2 [Example 268, 7-(Butylamino)-4-(2-((3-methoxyphenyl)amino)pyrimidin-4-yl)isoindolin-1-one]
19 | 2550 | 5970 | CCCCN(C)c1ccc(-c2ccnc(Nc3cccc(OC)c3)n2)c2c1C(=O)NC2 [Example 269, 7-(Butyl(methyl)amino)-4-(2-((3-methoxyphenyl)amino)pyrimidin-4-yl)isoindolin-1-one]
20 | > 10000 | > 10000 | CCCCN(C)c1ccc(-c2ccnc(Nc3cccc(OC)c3)n2)c2c1C(=O)N(C)C2 [Example 270, 7-(Butyl(methyl)amino)-4-(2-((3-methoxyphenyl)amino)pyrimidin-4-yl)-2-methylisoindolin-1-one]
